Experimental findings from patent US6506766B1 (Abbott Laboratories, priority 1998, dated 2003) are described below.

The target in assay [1] is T1, human glucocorticoid receptor-α [GRX] isoform (Homo sapiens, UniProt P04150).
T1 construct: host or cells: insect SF21 cells (baculovirus)
T1 sequence (P04150 1-777): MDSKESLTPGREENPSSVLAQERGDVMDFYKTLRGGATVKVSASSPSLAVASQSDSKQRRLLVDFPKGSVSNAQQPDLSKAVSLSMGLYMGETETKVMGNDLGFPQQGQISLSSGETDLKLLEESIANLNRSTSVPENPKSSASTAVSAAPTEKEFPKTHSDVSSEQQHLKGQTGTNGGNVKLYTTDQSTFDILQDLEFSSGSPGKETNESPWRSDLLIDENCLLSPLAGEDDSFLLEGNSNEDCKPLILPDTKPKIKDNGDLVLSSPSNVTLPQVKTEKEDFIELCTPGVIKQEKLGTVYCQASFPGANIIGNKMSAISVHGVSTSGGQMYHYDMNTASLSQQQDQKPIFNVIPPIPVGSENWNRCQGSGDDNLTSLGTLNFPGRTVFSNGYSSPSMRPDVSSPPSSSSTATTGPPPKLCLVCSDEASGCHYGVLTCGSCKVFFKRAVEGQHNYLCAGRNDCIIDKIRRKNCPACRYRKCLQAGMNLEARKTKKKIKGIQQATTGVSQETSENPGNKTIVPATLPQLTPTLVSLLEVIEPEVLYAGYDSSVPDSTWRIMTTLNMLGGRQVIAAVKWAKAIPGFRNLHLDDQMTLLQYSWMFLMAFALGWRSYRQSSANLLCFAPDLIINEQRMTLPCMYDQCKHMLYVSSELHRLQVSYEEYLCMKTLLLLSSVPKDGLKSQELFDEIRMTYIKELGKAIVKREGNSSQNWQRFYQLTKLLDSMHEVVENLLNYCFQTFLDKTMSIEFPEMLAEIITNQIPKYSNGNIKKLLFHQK
Kind of assay: Radioligand binding with human glucocorticoid receptor cytosol ([3H]-dexamethasone competition).

Assay [2] concerns the target T2, human progesterone receptor-A [PRA] isoform (Homo sapiens, UniProt P06401).
T2 construct: host or cells: insect SF21 cells (baculovirus)
T2 sequence (P06401 1-769 isoform P06401-2): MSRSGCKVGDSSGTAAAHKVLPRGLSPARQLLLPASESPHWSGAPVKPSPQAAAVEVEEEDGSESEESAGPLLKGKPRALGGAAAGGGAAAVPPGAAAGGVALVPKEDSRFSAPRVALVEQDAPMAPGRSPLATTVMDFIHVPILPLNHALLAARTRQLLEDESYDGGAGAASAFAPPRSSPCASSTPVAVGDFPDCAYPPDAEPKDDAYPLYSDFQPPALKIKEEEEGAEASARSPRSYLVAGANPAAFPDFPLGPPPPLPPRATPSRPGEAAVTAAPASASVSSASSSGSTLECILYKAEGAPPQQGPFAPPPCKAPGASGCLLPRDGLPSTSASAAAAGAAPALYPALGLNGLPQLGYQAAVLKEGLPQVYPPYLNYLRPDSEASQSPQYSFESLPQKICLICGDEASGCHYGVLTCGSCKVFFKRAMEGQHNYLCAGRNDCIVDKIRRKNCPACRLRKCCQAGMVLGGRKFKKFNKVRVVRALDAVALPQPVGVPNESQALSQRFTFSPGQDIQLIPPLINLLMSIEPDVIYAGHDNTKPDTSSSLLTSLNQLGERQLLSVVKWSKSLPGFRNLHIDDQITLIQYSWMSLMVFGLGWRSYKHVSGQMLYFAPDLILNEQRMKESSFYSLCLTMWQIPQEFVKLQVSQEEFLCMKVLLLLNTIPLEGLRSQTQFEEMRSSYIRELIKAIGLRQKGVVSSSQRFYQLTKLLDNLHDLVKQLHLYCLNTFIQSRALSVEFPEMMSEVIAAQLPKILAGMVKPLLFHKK
Kind of assay: Radioligand binding with human progesterone receptor cytosol ([3H]-progesterone competition). Conditions: PRA cytosol expressed in insect SF21 cells, [3H]Prog ~0.8 nM, 4° C. overnight; Ki by Cheng-Prusoff, KL ~4.5 nM; read-out: Ki (nM) PR.

Setting [3] is: GRX cytosol expressed in insect SF21 cells, [3H]-Dex ~0.9 nM, 4° C. overnight, Ki by Cheng-Prusoff, KL ~[…], read-out: Ki (nM) GR.

Where two headings read alike, the source gives them in different places.

On to `C/C=C\C1Oc2cccc(OC)c2-c2ccc3c(c21)C(C)=CC(C)(C)N3` (stereo not shown) [Example 180, (Z)-2,5-Dihydro-10-methoxy-5-(1-propenyl)-2,2,4-trimethyl-1H-[1]benzopyrano[3,4-f]quinoline], for which the Ki in assay [1] (setting [3]) turned out to be 18 nM; in assay [2], 733 nM.
Consider `COc1cccc2c1-c1ccc3c(c1C(/C=C/CO)O2)C(C)=CC(C)(C)N3` (stereo not shown) [Example 181, (E) 2,5-Dihydro-10-methoxy-5-(3-hydroxy-1-propenyl)-2,2,4-trimethyl-1H-[1]benzopyrano[3,4-f]quinoline], for which the Ki in assay [1] (setting [3]) was 207 nM; in assay [2] it was at least 10000 nM.
For the molecule `COc1cccc2c1-c1ccc3c(c1C(/C=C/COC(=O)N(C)C)O2)C(C)=CC(C)(C)N3` (stereo not shown) [Example 182, (E) 2,5-Dihydro-10-methoxy-5-(3-(N,N-dimethylaminocarbonyloxy)-1-propenyl)-2,2,4-trimethyl-1H-[1]benzopyrano[3,4-f]quinoline], the Ki in assay [1] (setting [3]) was 23 nM; in assay [2], at least 10000 nM.
Consider `COCOC/C=C/C1Oc2cccc(OC)c2-c2ccc3c(c21)C(C)=CC(C)(C)N3` (stereo not shown) [Example 183, (E) 2,5-Dihydro-10-methoxy-5-(3-methoxymethoxy-1-propenyl)-2,2,4-trimethyl-1H-[1]benzopyrano[3,4-f]quinoline], for which the Ki is 38 nM in assay [1] (setting [3]) and at least 10000 nM in assay [2].
Take `COc1cccc2c1-c1ccc3c(c1C(CC(=O)N(C)OC)O2)C(C)=CC(C)(C)N3` (stereo not shown) [Example 185, Methyl 2-(2,5-Dihydro-10-methoxy-2,2,4-trimethyl-1H-[1]benzopyrano[3,4-f]quinolin-5-yl)acetyl Hydroxamate]: the Ki in assay [1] (setting [3]) was 288 nM; in assay [2] it was at least 10000 nM.
Taken in the same sequence, the figures for `COc1cccc2c1-c1ccc3c(c1C(CC=O)O2)C(C)=CC(C)(C)N3` (stereo not shown) [Example 186, 2-(2,5-Dihydro-10-methoxy-2,2,4-trimethyl-1H-[1]benzopyrano[3,4-f]quinolin-5-yl)acetaldehyde] were 90 nM and at least 10000 nM.
Take `COc1cccc2c1-c1ccc3c(c1C(CC=C1CCCC1)O2)C(C)=CC(C)(C)N3` (stereo not shown) [Example 188, 2,5-Dihydro-10-methoxy-5-(2-cyclopentylidenylethyl)-2,2,4-trimethyl-1H-[1]benzopyrano[3,4-f]quinoline]: the Ki came to 4.9 nM in assay [1] (Ki (nM) GR) and 5300 nM in assay [2].
Regarding `COc1cccc2c1-c1ccc3c(c1C(CC=C(C)C)O2)C(C)=CC(C)(C)N3` (stereo not shown) [Example 190, 2,5-Dihydro-10-methoxy-5-(3-methyl-2-butenyl)-2,2,4-trimethyl-1H-[1]benzopyrano[3,4f-]quinoline], the inhibition constant (Ki) turned out to be 6.25 nM in assay [1] (setting [3]) and 1590 nM in assay [2].
The corresponding values for `C/C=C/CC1Oc2cccc(OC)c2-c2ccc3c(c21)C(C)=CC(C)(C)N3` (stereo not drawn) [Example 191, trans 2,5-Dihydro-10-methoxy-5-(2-butenyl)-2,2,4-trimethyl-1H-[1]benzopyrano[3,4-f]quinoline] are 2.9 nM and 1190 nM.
As for `CC/C=C/CC1Oc2cccc(OC)c2-c2ccc3c(c21)C(C)=CC(C)(C)N3` (stereo not drawn) [Example 192, trans 2,5-Dihydro-10-methoxy-5-(2-penten-1-yl)-2,2,4-trimethyl-1H-[1]benzopyrano[3,4-f]quinoline], the values for the Ki in assay [1] (setting [3]) and in assay [2] were 3.1 nM and at least 10000 nM, respectively.
Consider `COc1cccc2c1-c1ccc3c(c1C(CC=C(F)F)O2)C(C)=CC(C)(C)N3` (stereo not shown) [Example 193, 2,5-Dihydro-10-methoxy-5-(1,1-difluoro-1-propen-3-yl)-2,2,4-trimethyl-1H-[1]benzopyrano[3,4-f]quinoline], for which the Ki in assay [1] (Ki (nM) GR) was determined as 2 nM; in assay [2], 2180 nM.
Regarding `COC(=O)/C=C/CC1Oc2cccc(OC)c2-c2ccc3c(c21)C(C)=CC(C)(C)N3` (stereo not shown) [Example 194], the Ki in assay [1] (setting [3]) was 7.7 nM; in assay [2], at least 10000 nM.
Taken in the same sequence, the figures for `COc1cccc2c1-c1ccc3c(c1C(C/C=C/CO)O2)C(C)=CC(C)(C)N3` (stereo not shown) [Example 195, (E) 2,5-Dihydro-10-methoxy-5-(4-hydroxy-2-buten-1-yl)-2,2,4-trimethyl-1H-[1]benzopyrano[3,4-f]quinoline] were 25 nM and at least 10000 nM.
Taken in the same sequence, the figures for `COc1cccc2c1-c1ccc3c(c1C(C/C=C/COC(=O)N(C)C)O2)C(C)=CC(C)(C)N3` (stereo not shown) [Example 196, (E) 2,5-Dihydro-10-methoxy-5-(4-(N,N-dimethylaminocarbonyloxy)-2-buten-1-yl)-2,2,4-trimethyl-1H-[1]benzopyrano[3,4-f]quinoline] were 1.1 nM and at least 10000 nM.
As to `CNC(=O)OC/C=C/CC1Oc2cccc(OC)c2-c2ccc3c(c21)C(C)=CC(C)(C)N3` (stereo not shown) [Example 197, (E) 2,5-Dihydro-10-methoxy-5-(4-(N-methylaminocarbonyloxy)-2-buten-1-yl)-2,2,4-trimethyl-1H-[1]benzopyrano[3,4-f]quinoline], the figures for the inhibitory constant (Ki) in assay [1] (setting [3]) and in assay [2] were 28 nM and at least 10000 nM, respectively.
On to `C/C=C/CC1Oc2cccc(OC)c2-c2ccc3c(c21)C(C)=CC(C)(C)N3` (stereo not shown) [Example 198, (E) 2,5-Dihydro-10-methoxy-5-(2-butenyl)-2,2,4-trimethyl-1H-[1]benzopyrano[3,4-f]quinoline], for which the Ki amounted to 0.65 nM in assay [1] (setting [3]) and 2130 nM in assay [2].
The corresponding values for `COc1cccc2c1-c1ccc3c(c1C(CCOC(=O)NCc1ccccc1)O2)C(C)=CC(C)(C)N3` (stereo not shown) [Example 200, 2,5-Dihydro-10-methoxy-5-(2-(N-benzylcarbonyloxy)ethyl)-2,2,4-trimethyl-1H-[1]benzopyrano[3,4-f]quinoline] are 45 nM and at least 10000 nM.
With `COc1cccc2c1-c1ccc3c(c1C(CCOC(=O)N1CCOCC1)O2)C(C)=CC(C)(C)N3` (stereo not shown) [Example 201, 2,5-Dihydro-10-methoxy-5-(2-(N-morpholinocarbonyloxy)ethyl)-2,2,4-trimethyl-1H-[1]benzopyrano[3,4-f]quinoline], the Ki was 114 nM in assay [1] (setting [3]) and at least 10000 nM in assay [2].
As for `COCCNC(=O)OCCC1Oc2cccc(OC)c2-c2ccc3c(c21)C(C)=CC(C)(C)N3` (stereo not shown) [Example 202, 2,5-Dihydro-10-methoxy-5-(2-(N-(2-methoxyethyl)aminocarbonyloxy)ethyl)-2,2,4-trimethyl-1H-[1]benzopyrano[3,4-f]quinoline], the Ki in assay [1] (setting [3]) is 134 nM; in assay [2], at least 10000 nM.
Take `CNC(=O)OCCC1Oc2cccc(OC)c2-c2ccc3c(c21)C(C)=CC(C)(C)N3` (stereo not shown) [Example 203, 2,5-Dihydro-10-methoxy-5-(2-(N-methyaminocarbonyloxyoxy)ethyl)-2,2,4-trimethyl-1H-[1]benzopyrano[3,4-f]quinoline]: the Ki is 85 nM in assay [1] (setting [3]) and at least 10000 nM in assay [2].
Turning to `COc1cccc2c1-c1ccc3c(c1C(CCOC(=O)N(C)C)O2)C(C)=CC(C)(C)N3` (stereo not shown) [Example 204, 2,5-Dihydro-10-methoxy-5-(2-(N,N-dimethylaminocarbonyloxy)ethyl)-2,2,4-trimethyl-1H-[1]benzopyrano[3,4-f]quinoline], the Ki in assay [1] (setting [3]) was 74 nM; in assay [2], at least 10000 nM.
Take `COCOCCC1Oc2cccc(OC)c2-c2ccc3c(c21)C(C)=CC(C)(C)N3` (stereo not shown) [Example 205, 2,5-Dihydro-10-methoxy-5-(2-methoxymethoxyethyl)-2,2,4-trimethyl-1H-[1]benzopyrano[3,4-f]quinoline]: the Ki was 11.4 nM in assay [1] (setting [3]) and at least 10000 nM in assay [2].
The corresponding values for `CCOC(=O)NCC1Oc2cccc(OC)c2-c2ccc3c(c21)C(C)=CC(C)(C)N3` (stereo not shown) [Example 207] are 22 nM and at least 10000 nM.

By Ki is commonly meant a measure of affinity in units of concentration, obtained from inhibition or displacement.
